{
  "source": "patent US20240224999A1",
  "about": "“METABOLIC INHIBITORS FOR CONTROLLING BIOFILM” (MC (US) 3 LLC, priority 2021, published 2024)",
  "key": {"[1]": {"test_system": "Desulfovibrio vulgaris 29579", "experiment": "MBEC biofilm efficacy, Log (Growth) by enumeration", "format": "cell-based", "settings": "testing time 2 days", "experimental": "(§1) Strains of commonly found bacteria were used for testing the efficacy of the compounds, viz. Desulfovibrio alaskensis and Desulfovibrio vulgaris. Media for the cultures was also prepared by using a standard method. The cultures were aseptically used and incubated under anaerobic conditions. They were plated with an MBEC (minimal biofilm eradication concentration) lid, to allow for biofilm growth. […] Then the plates were rinsed, sonicated and enumerated. These enumerations were grown for 5-days for the readings.\n(§2) A lyophilized Desulfovibrio alaskensis 14563, Desulfovibrio vulgaris 29579 pure cultures received from ATCC were resuspended individually in 500 ul of MB 1250. Aseptically, the content was transferred to a 5-mL tube of MB1250 medium. The cultures were incubated in an anaerobic chamber at 30° C. for 72 hrs. Subsequently, an individual stock culture with a final concentration of 25% glycerol were prepared by adding equal volumes of culture and 50% glycerol. 1 ml of the cultures were then transferred to 2-ml cryogenic vials and stored at −80° C. The purity of the stock cultures was evaluated through PCR, by amplifying the 16S rDNA region, and thus, it was verified that the original ATCC sample was a pure culture.\n(§3) 48-hour cultures of ATCC Desulfovibrio alaskensis 14563 and Desulfovibrio vulgaris 29579 were prepared in an anaerobic chamber. Each culture was prepared as a 1:10 culture by taking 1 milliliter (mL) of a pure culture and inoculating 9 milliliters (mL) of fresh SRB2-LA media. Prepared cultures were incubated at 30° C. and further diluted 1:100 in SRB2-LA media after incubation. They were grown for another 24 hours then diluted 1:10. The 1:10 dilution was plated with an MBEC (minimal biofilm eradication concentration) lid, which would allow for biofilm growth.\n(§4) Treatment plates were prepared by adding 180 μL of fresh phosphate buffer amended with 10% SRB2-LA media to each well. These wells were then dosed with the compounds of interest with a ppm range of 200 to 1 PPM. Edge wells were not used due to their inherent variability and evaporation of the media. Each experiment was done with at least three replicates for different treatments and non-treatment controls. After incubation of the MBEC plate, the MBEC lid was removed and added to a rinse plate containing phosphate buffer and 10% SRB2-LA. The lid was rinsed for 30 seconds then added to the treatment plate. The MBEC lids had 6 hours to 3 days of exposure time. After targeted exposure time, the plates were rinsed, sonicated, and enumerated. The rinse was done for 30 seconds in 10% SRB2-LA with phosphate buffer. Following the rinse, the lid was added to a plate with the same media and buffer mix and the plate was sonicated for 5 minutes. After five minutes, the lid was discarded, and each row of the plate was enumerated. These enumerations were grown for 5 days before being read."}, "[2]": {"test_system": "Desulfovibrio alaskensis 14563", "experiment": "MBEC biofilm efficacy, Log (Growth) by enumeration", "format": "cell-based", "settings": "for Log (Growth): biofilm; for efficacy in controlling biofilm formation (in words): tested individually, standard temperature and pressure", "experimental": "as §1, §2, §3, §4"}},
  "note": "Entries after “also recorded” stand apart in the source; their conditions may differ.",
  "data": [
    {"smiles": "O=C(CN1C(=O)c2cccc3cccc(c23)C1=O)NO", "note": "[Compound C1]", "values": [
      {"measurement": "Log (Growth)", "setting": "[1]; 5 PPM", "value": 4},
      {"measurement": "Log (Growth)", "setting": "[1]; 25 PPM", "value": 1},
      {"measurement": "Log (Growth)", "setting": "[1]; 50 PPM", "value": 1},
      {"measurement": "Log (Growth)", "setting": "[1]; 100 PPM", "value": 0},
      {"measurement": "Log (Growth)", "setting": "[1]; 200 PPM", "value": 1},
      {"measurement": "Log (Growth)", "setting": "[2]; testing time 6 hours, 1 PPM", "value": 4},
      {"measurement": "Log (Growth)", "setting": "[2]; testing time 6 hours, 5 PPM", "value": 2},
      {"measurement": "Log (Growth)", "setting": "[2]; testing time 6 hours, 10 PPM", "value": 1},
      {"measurement": "Log (Growth)", "setting": "[2]; testing time 6 hours, 25 PPM", "value": 1},
      {"measurement": "Log (Growth)", "setting": "[2]; testing time 6 hours, 50 PPM", "value": 1},
      {"measurement": "Log (Growth)", "setting": "[2]; testing time 18 hours, 1 PPM", "value": 1},
      {"measurement": "Log (Growth)", "setting": "[2]; testing time 18 hours, 5 PPM", "value": 0},
      {"measurement": "Log (Growth)", "setting": "[2]; testing time 18 hours, 10 PPM", "value": 0},
      {"measurement": "Log (Growth)", "setting": "[2]; testing time 18 hours, 25 PPM", "value": 0},
      {"measurement": "Log (Growth)", "setting": "[2]; testing time 18 hours, 50 PPM", "value": 0},
      {"measurement": "Log (Growth)", "setting": "[2]; testing time 2 days, 1 PPM", "value": 0},
      {"measurement": "Log (Growth)", "setting": "[2]; testing time 2 days, 2.5 PPM", "value": 0},
      {"measurement": "Log (Growth)", "setting": "[2]; testing time 2 days, 10 PPM", "value": 0},
      {"measurement": "Log (Growth)", "setting": "[2]; testing time 2 days, 15 PPM", "value": 0},
      {"measurement": "Log (Growth)", "setting": "[2]; testing time 2 days, 20 PPM", "value": 0},
      {"measurement": "Log (Growth)", "setting": "[2]; testing time 2 days, 25 PPM", "value": 0},
      {"measurement": "Log (Growth)", "setting": "[2]; testing time 2 days, 40 PPM", "value": 0},
      {"measurement": "Log (Growth)", "setting": "[2]; testing time 2 days, 50 PPM", "value": 0},
      {"measurement": "Log (Growth)", "setting": "[2]; testing time 3 days, 50 PPM", "value": 0},
      {"measurement": "Log (Growth)", "setting": "[2]; testing time 3 days, 100 PPM", "value": 0},
      {"measurement": "Log (Growth)", "setting": "[2]; testing time 3 days, 200 PPM", "value": 0},
      {"measurement": "killing of the microorganism strain Desulfovibrio alaskensis (in words)", "setting": "[2]; comparative testing against two commercial products, metabolic inhibition", "value": "completely killing"},
      {"measurement": "efficacy in controlling biofilm formation (in words)", "setting": "[2]", "value": "significant activity in controlling biofilms; also recorded: highest efficacy"}
    ]},
    {"smiles": "O=C(CCCN1C(=O)c2cccc3cccc(c23)C1=O)NO", "note": "[Compound C12]", "values": [
      {"measurement": "Log (Growth)", "setting": "[2]; testing time 2 days, 5 PPM", "value": 1},
      {"measurement": "Log (Growth)", "setting": "[2]; testing time 2 days, 25 PPM", "value": 0},
      {"measurement": "Log (Growth)", "setting": "[2]; testing time 2 days, 50 PPM", "value": 1},
      {"measurement": "Log (Growth)", "setting": "[2]; testing time 2 days, 100 PPM", "value": 0.3},
      {"measurement": "Log (Growth)", "setting": "[2]; testing time 2 days, 200 PPM", "value": 0},
      {"measurement": "efficacy in controlling biofilm formation (in words)", "setting": "[2]", "value": "significant activity in controlling biofilms; also recorded: exhibited efficacy"}
    ]},
    {"smiles": "CCCCCCCC(=O)NO", "note": "[Compound C16]", "values": [
      {"measurement": "Log (Growth)", "setting": "[2]; testing time 2 days, 5 PPM", "value": 5},
      {"measurement": "Log (Growth)", "setting": "[2]; testing time 2 days, 25 PPM", "value": 5},
      {"measurement": "Log (Growth)", "setting": "[2]; testing time 2 days, 50 PPM", "value": 3},
      {"measurement": "Log (Growth)", "setting": "[2]; testing time 2 days, 100 PPM", "value": 1},
      {"measurement": "Log (Growth)", "setting": "[2]; testing time 2 days, 200 PPM", "value": 0},
      {"measurement": "efficacy in controlling biofilm formation (in words)", "setting": "[2]", "value": "significant activity in controlling biofilms; also recorded: exhibited efficacy"}
    ]}
  ]
}
